Literature values as cited in patent US9220771B2, “Peptide for use in the treatment of breast cancer and/or bone metastases” (MERCK PATENT GMBH, priority 2010, dated 2015).

Test system: HER2-positive advanced BRCA
Conditions: in combination with capecitabine, 2nd line; cited from earlier work

In the case of CS(=O)(=O)CCNCc1ccc(-c2ccc3ncnc(Nc4ccc(OCc5cccc(F)c5)c(Cl)c4)c3c2)o1 [Lapatinib], the “improvement of median time to progression compared to capecitabine alone” value is given as 4 months.
